Entries after “also recorded” stand apart in the source; their conditions may differ. Where a name gives a salt, the structure may show the parent alone.
Experiments:
chakragati (ckr) mice = experiment: Screening of candidate compounds based on motor activity in ckr mice; type: in vivo, mouse; settings: for overall biological activity: based on receptor binding data and ckr mouse screening data (FIGS. 1 and 2, ANOVA)
Procedure: To test the effect of compounds, including compounds of the present invention, on CNS function, chakragati (ckr) mice were used as a model. The DC series compounds were tested on motor activity and PPI in ckr mice.
(§1) Stock solutions of the drugs (DC1 to DC20) were dissolved in DMSO, and then diluted to 10 mg/10 mL with distilled water such that the final concentration of DMSO was 0.5%. Each animal received 10 mg/kg of the test drug in a volume of 0.1 mL per 10 g. […] These compounds were sonicated for 30 minutes in DMSO, acidified to pH 4 to 5 by drop-wise addition of 1M HCl, and then suspended in 20% cyclodextrin solution.
Twenty ckr mice (male and female, 3 months old) were randomly assigned to receive test drugs or 0.5% DMSO vehicle. Each drug was tested in 5 mice. Each mouse received up to 5 randomly assigned drugs in random order. Each treatment was separated by a minimum washout period of 3 days. On the day of testing, mice were brought into the behavioral test room and allowed to acclimatize for at least 1 hour. They then received intraperitoneal injections of the 0.1 mL/10 g (10 mg/kg) of the test drug solutions or vehicle.
They were returned to their cage and 20 minutes later they were placed in a 190 mm diameter, 300 mm deep circular recording chamber. Four mice were tested simultaneous in 4 separate chambers. Between each testing session the chambers were wiped down with 70% ethanol and allowed to dry for at least 10 minutes The mice were monitored with an overhead video camera for 15 min. Their behavior was videotaped and simultaneously digitized and tracked (Ethovision Version 2, Noldus). The total distance moved, the velocity of movement, and the time spent moving were calculated.
The data for each parameter were separately analyzed by one-way ANOVA (Analysis of Variance) and post hoc Dunnett's comparisons with the vehicle-treated control group. Tukey's HSD test was applied for post hoc comparisons between groups. p<0.05 was considered statistically significant.

[1] = Preparation of drug solutions (dissolution in DMSO); type: physicochemical; settings: stock solution preparation
Procedure: as §1

5-HT transport sites = molecular target: T1, 5-HT transport sites (Rattus norvegicus, UniProt P31652); experiment: Displacement of [3H]paroxetine binding in membranes from rat frontal cortex
T1 construct: striatum and frontal cortex dissected from frozen Sprague-Dawley rat brains (Pel-Freez, Rogers, Ark.); tissue Pel-Freez, Rogers, Ark; host or cells: rat frontal cortex membranes (Sprague-Dawley rat brain)
Procedure: Binding of substituted pyrrolidine compounds at biogenic amine transporters was determined using striatum and frontal cortex dissected from frozen Sprague-Dawley rat brains (Pel-Freez, Rogers, Ark.). Affinities of the compounds at dopamine (DA) transport sites were determined by displacement of [^125I] 3 beta-(4-iodophenyl)tropan-2 beta-carboxylic acid methyl ester (RTI-55) binding in membranes from rat striatum, using 0.5 mg (original wet weight) of membranes and 10 pM [^125I]RTI-55. Non-specific binding was determined in the presence of 1 μM 2β-propanoyl-3β-(2-naphthyl) tropane (WF-23). Affinities of the compounds at 5-HT transport sites were determined by displacement of [^3H]paroxetine binding in membranes from rat frontal cortex, using 50 mg (original wet weight) of membranes and 0.4 nM [^3H]paroxetine. Non-specific binding was determined in the presence of 10 μM fluoxetine. Binding of the compounds at norepinephrine (NE) transport sites was determined by displacement of [^3H]nisoxetine binding in membranes from rat forebrain, using 0.7 nM [^3H]nisoxetine. Non-specific binding was determined in the presence of 1 μM desipramine.
Potencies in FIGS. 3 and 4 were calculated from displacement curves using 7-10 concentrations of unlabeled compounds, as analyzed by non-linear curve fitting. […]

ckr mouse = experiment: Validation of ckr mouse model with antipsychotics (hyperactivity and circling); type: in vivo; settings: concentrations relevant to human clinical use
Description: The ckr mouse was serendipitously created as a result of a transgenic insertional mutation. […] The ckr mouse also appears to show reduced social interactions resembling the social withdrawal that is part of the constellation of negative symptoms of schizophrenia. The mouse also presents lateral ventricular enlargement, which may mirror neuropathological observations in schizophrenia.
The model has been further validated by testing risperidone, haloperidol and pimozide in the ckr mouse. The behavioral output was assayed by measuring the rate of hyperactivity and circling after administration. […] Based on the foregoing, the ckr mouse model is considered to be valid for evaluation of compounds for use in reducing the symptoms of neuropsychiatric disorders in mammals, including humans.

T1 sequence (P31652 whole entry): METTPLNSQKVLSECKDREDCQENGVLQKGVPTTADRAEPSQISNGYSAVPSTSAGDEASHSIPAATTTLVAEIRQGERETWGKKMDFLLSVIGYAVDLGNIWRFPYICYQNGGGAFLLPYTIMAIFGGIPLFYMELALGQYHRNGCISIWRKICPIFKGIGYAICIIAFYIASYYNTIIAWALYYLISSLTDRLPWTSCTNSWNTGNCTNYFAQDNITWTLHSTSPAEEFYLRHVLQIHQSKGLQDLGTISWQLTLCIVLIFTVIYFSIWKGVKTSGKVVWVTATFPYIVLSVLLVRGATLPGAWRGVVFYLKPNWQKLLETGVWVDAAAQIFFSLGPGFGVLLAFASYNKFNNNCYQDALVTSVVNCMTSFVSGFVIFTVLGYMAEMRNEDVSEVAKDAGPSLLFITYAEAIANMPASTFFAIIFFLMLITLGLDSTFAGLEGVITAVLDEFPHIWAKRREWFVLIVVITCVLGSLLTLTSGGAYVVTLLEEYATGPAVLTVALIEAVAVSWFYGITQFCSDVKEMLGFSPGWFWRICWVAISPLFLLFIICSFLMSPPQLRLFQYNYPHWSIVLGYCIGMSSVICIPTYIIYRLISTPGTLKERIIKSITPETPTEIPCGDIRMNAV

With COC(=O)[C@H](c1ccc2ccccc2c1)[C@@H]1C[C@@H](OC)CN1 [DC16, (R)-methyl 2-((2S,4R)-4-methoxypyrrolidin-2-yl)-2-(naphthalen-2-yl)acetate hydrochloride] the overall biological activity (chakragati (ckr) mice; hydrochloride) was “has biological activity; also recorded: favorable biological activity”, the total distance moved (chakragati (ckr) mice; ckr mice, 10 mg/kg intraperitoneal, 20 minutes after injection, monitored 15 min, vs vehicle (FIG. 1a)) was “trend towards decreased” and the velocity of movement (chakragati (ckr) mice; ckr mice, 10 mg/kg intraperitoneal, 20 minutes after injection, monitored 15 min, vs vehicle (FIG. 1b)) was “trend towards decreased”. The time spent moving (chakragati (ckr) mice; ckr mice, 10 mg/kg intraperitoneal, 20 minutes after injection, monitored 15 min, vs vehicle (FIG. 1c)) was “trend towards a decrease” and the “solubility in DMSO alone” value [1] was “difficult to dissolve in DMSO alone”.
With COC(=O)[C@H](c1ccc(Cl)c(Cl)c1)[C@@H]1C[C@@H](O)CN1 [DC-17, (R)-methyl 2-(3,4-dichlorophenyl)-2-((2S,4R)-4-hydroxypyrrolidin-2-yl)acetate hydrochloride] the overall biological activity (chakragati (ckr) mice) was “favorable biological activity”.
For COC(=O)[C@H](c1ccc2ccccc2c1)[C@@H]1C[C@@H](O)CN1.Cl [HDMP-80, (R)-methyl 2-((2S,4R)-4-hydroxypyrrolidin-2-yl)-2-(naphthalen-2-yl)acetate hydrochloride], the “binding affinity for the serotonin transporter” value (5-HT transport sites) was “high binding affinity”.
With O=C(CCCN1CCC(O)(c2ccc(Cl)cc2)CC1)c1ccc(F)cc1 [haloperidol] the “hyperactivity in ckr mice” value (ckr mouse) was “dose-dependent attenuation”.
For Cc1nc2n(c(=O)c1CCN1CCC(c3noc4cc(F)ccc34)CC1)CCCC2 [risperidone], the “hyperactivity in ckr mice” value (ckr mouse) was “dose-dependent attenuation”.

From patent publication US8329741B2, “Substituted pyrrolidine compounds with central nervous system activity” (The Research Foundation of State University of New York, priority 2007, dated 2012)
